Test results published in article PMC6272171 (2015).

Columns and labels:
[1] = test system: a-core (DNA, G4) AGGGTTAGGGTTAGGGTTAGGG; assay: UV-Vis titration, Scatchard; details: 50 mM Tris-HCl pH 7.4, 25 °C
[2] = test system: TBA (DNA, G4) GGTTGGTGTGGTTGG; assay: UV-Vis titration, Scatchard; details: 100 mM KCl; 50 mM Tris-HCl pH 7.4, 25 °C
[3] = test system: dsDNA (DNA, duplex) GGGAGGTTTCGC/GCGAAACCTCCC; assay: UV melting, 260 nm; details: 100 mM KCl, 50 mM Tris-HCl pH 7.4, same value in NaCl
[4] = test system: c-myc (DNA, G4) TGAGGGTGGGGAGGGTGGGGAA; assay: UV-Vis titration, Scatchard; details: 100 mM KCl; 50 mM Tris-HCl pH 7.4, 25 °C
[5] = test system: c-kit (DNA, G4) AGGGAGGGCGCTGGGAGGAGGAGGG; assay: UV-Vis titration, Scatchard; details: 100 mM KCl; 50 mM Tris-HCl pH 7.4, 25 °C
[6] = test system: a-core (DNA, G4) AGGGTTAGGGTTAGGGTTAGGG; assay: CD melting, 290 nm; details: 50 mM Tris-HCl pH 7.4, 3.0 µM compound, 1.5 µM DNA
[7] = test system: a-coreTT (DNA, G4) AGGGTTAGGGTTAGGGTTAGGGTT; assay: UV-Vis titration, Scatchard; details: 100 mM KCl; 50 mM Tris-HCl pH 7.4, 25 °C
[8] = test system: dsDNA (DNA, duplex) GGGAGGTTTCGC/GCGAAACCTCCC; assay: UV-Vis titration, Scatchard; details: 100 mM KCl; 50 mM Tris-HCl pH 7.4, 25 °C; 0.60 ± 0.08 in 100 mM NaCl
[9] = test system: c-kit (DNA, G4) AGGGAGGGCGCTGGGAGGAGGAGGG; assay: CD melting, 262 nm; details: 20 mM KCl; 50 mM Tris-HCl pH 7.4; 3.0 µM compound, 1.5 µM DNA
[10] = test system: c-myc (DNA, G4) TGAGGGTGGGGAGGGTGGGGAA; assay: CD melting, 262 nm; details: 5 mM KCl; 50 mM Tris-HCl pH 7.4; 3.0 µM compound, 1.5 µM DNA
[11] = test system: TBA (DNA, G4) GGTTGGTGTGGTTGG; assay: CD melting, 290 nm; details: 100 mM KCl; 50 mM Tris-HCl pH 7.4; 3.0 µM compound, 1.5 µM DNA
[12] = test system: a-coreTT (DNA, G4) AGGGTTAGGGTTAGGGTTAGGGTT; assay: CD melting, 290 nm; details: 100 mM KCl; 50 mM Tris-HCl pH 7.4; 3.0 µM compound, 1.5 µM DNA
[13] = test system: F21T (DNA, G4) GGGTTAGGGTTAGGGTTAGGG; assay: FRET melting; details: 150 mM KCl; 100 mM Tris-HCl pH 7.4; 0.4 µM compound, 0.2 µM F21T

**Q.** What does the source list for CN(C)CCCN1C(=O)c2ccc3c4c(ccc(c24)C1=O)C(=O)N(CCCN(C)C)C3=O?
**A.** K ([1]; 100 mM KCl): 1.6 ± 0.2 × 10^6 M^-1; K ([1]; 100 mM NaCl): 0.73 ± 0.09 × 10^6 M^-1; K [2]: 0.49 ± 0.04 × 10^6 M^-1; ∆Tm ([3]; 2:1 ligand:DNA): 12 °C; K [4]: 1.5 ± 0.2 × 10^6 M^-1; K [5]: 0.74 ± 0.05 × 10^6 M^-1; ∆Tm ([6]; 100 mM KCl): 5 °C; ∆Tm ([6]; 100 mM NaCl): 1 °C; K [7]: 1.9 ± 0.3 × 10^6 M^-1; K [8]: 0.60 ± 0.04 × 10^6 M^-1

**Q.** CN1CCCNC(=O)c2ccc(cc2)C(=O)NCCCN(C)CCCN2C(=O)c3ccc4c5c(ccc(c35)C2=O)C(=O)N(CCC1)C4=O was tested. Which K ([1]; 100 mM KCl) did it give?
**A.** Its K is 10 ± 0.5 × 10^6 M^-1.

**Q.** What about the K ([1]; 100 mM NaCl) of the same molecule?
**A.** Its K is 1.0 ± 0.04 × 10^6 M^-1.

**Q.** What about the “∆Tm” value [9] of the same molecule?
**A.** The value was 11 °C.

**Q.** And the “∆Tm” value [10]?
**A.** Its value is 15 °C.

**Q.** And the K [2]?
**A.** Its K is 3.5 ± 0.2 × 10^6 M^-1.

**Q.** And the “∆Tm” value ([3]; 2:1 ligand:DNA in table (text: 1-fold))?
**A.** The value was 0.3 °C.

**Q.** What about the “∆Tm” value [11] of the same molecule?
**A.** The value was 11 °C.

**Q.** What about the “∆Tm” value [12] of the same molecule?
**A.** The value was 18 °C.

**Q.** What about the K [4] of the same molecule?
**A.** The K was 4.0 ± 0.3 × 10^6 M^-1.

**Q.** What about the K [5] of the same molecule?
**A.** Its K is 1.9 ± 0.18 × 10^6 M^-1.

**Q.** And the “∆Tm” value ([6]; 100 mM KCl)?
**A.** Its value is 15 °C.

**Q.** What about the K [7] of the same molecule?
**A.** Its K is 6.1 ± 0.4 × 10^6 M^-1.

**Q.** And the Tm increase [13]?
**A.** The Tm increase was 11 °C.
